Results taken from ChEMBL document CHEMBL4765407, “Design, synthesis and high antitumor potential of new unsymmetrical bisacridine derivatives towards human solid tumors, specifically pancreatic cancers and their unique ability to stabilize DNA G-quadruplexes” (Eur J Med Chem, 2020).

Columns and labels:
[1] = tested on: Capan-2; experiment: Cytotoxicity against human Capan-2 cells assessed as reduction in cell viability measured after 72 hrs by SRB assay; assay type: functional, cell-based; details: Capan-2, 72 h
[2] = tested on: BXPC-3; experiment: Cytotoxicity against human BXPC-3 cells assessed as reduction in cell viability measured after 72 hrs by SRB assay; assay type: functional, cell-based; details: BXPC-3, 72 h
[3] = tested on: HCT-116; experiment: Antitumour activity against human HCT-116 cells xenografted in Crl:Nu-Foxnl nu mouse assessed as inhibition of tumour growth at total effective dose of 120 mg/kg, iv measured on day 15; assay type: functional; details: HCT-116, iv, 360 h, time 15 day, read-out: TGI
[4] = tested on: NCI-H460; experiment: Cytotoxicity against human NCI-H460 cells assessed as reduction in cell viability measured after 72 hrs by SRB assay; assay type: functional, cell-based; details: NCI-H460, 72 h
[5] = tested on: MDA-MB-231; experiment: Cytotoxicity against human MDA-MB-231 cells assessed as reduction in cell viability measured after 72 hrs by SRB assay; assay type: functional, cell-based; details: MDA-MB-231, 72 h
[6] = tested on: MCF7; experiment: Cytotoxicity against human MCF7 cells assessed as reduction in cell viability measured after 72 hrs by SRB assay; assay type: functional, cell-based; details: MCF7, 72 h
[7] = tested on: MDA-MB-231; experiment: Antitumour activity against human MDA-MB-231 cells xenografted in Crl:Nu-Foxnl nu mouse assessed as inhibition of tumour growth at total effective dose of 40 mg/kg, iv measured on day 39; assay type: functional; details: MDA-MB-231, iv, 936 h, time 39 day, read-out: TGI
[8] = tested on: PANC-1; experiment: Antitumour activity against human PANC-1 cells xenografted in Crl:Nu-Foxnl nu mouse assessed as inhibition of tumour growth at total effective dose of 160 mg/kg, iv measured on day 26; assay type: functional; details: PANC-1, iv, 624 h, time 26 day, read-out: TGI
[9] = tested on: PC-3; experiment: Cytotoxicity against human PC-3 cells assessed as reduction in cell viability measured after 72 hrs by SRB assay; assay type: functional, cell-based; details: PC-3, 72 h
[10] = tested on: DU-145; experiment: Cytotoxicity against human DU-145 cells assessed as reduction in cell viability measured after 72 hrs by SRB assay; assay type: functional, cell-based; details: DU-145, 72 h
[11] = tested on: MIA PaCa-2; experiment: Cytotoxicity against human MIA PaCa-2 cells assessed as reduction in cell viability measured after 72 hrs by SRB assay; assay type: functional, cell-based; details: MIA PaCa-2, 72 h
[12] = tested on: Quadruplex DNA; experiment: Stabilization of 5'-FAM/3'-TAMRA labeled c-Myc promoter G4 quadruplex DNA FPu18 (unknown origin) assessed as change in melting temperature at 10 microM measured after 15 mins by FRET assay; assay type: nucleic-acid assay
[13] = tested on: HT-29; experiment: Cytotoxicity against human HT-29 cells assessed as reduction in cell viability measured after 72 hrs by SRB assay; assay type: functional, cell-based; details: HT-29, 72 h
[14] = Stabilization of ds 5'-FAM-d(TATAGCTATA-HEG-TATAGCTATA)-TAMRA-3' (unknown origin) assessed as change in melting temperature at 10 microM measured after 15 mins by FRET assay; details: Homo sapiens
[15] = tested on: PANC-1; experiment: Cytotoxicity against human PANC-1 cells assessed as reduction in cell viability measured after 72 hrs by SRB assay; assay type: functional, cell-based; details: PANC-1, 72 h
[16] = tested on: Quadruplex DNA; experiment: Stabilization of 5'-FAM/3'-TAMRA labeled K-Ras G4 quadruplex DNA (unknown origin) assessed as change in melting temperature at 10 microM measured after 15 mins by FRET assay; assay type: nucleic-acid assay
[17] = tested on: Quadruplex DNA; experiment: Stabilization of 5'-FAM/3'-TAMRA labeled telomeric G4 quadruplex DNA F21T (unknown origin) assessed as change in melting temperature at 10 microM measured after 15 mins by FRET assay; assay type: nucleic-acid assay
[18] = tested on: ASPC1; experiment: Cytotoxicity against human ASPC1 cells assessed as reduction in cell viability measured after 72 hrs by SRB assay; assay type: functional, cell-based; details: ASPC1, 72 h
[19] = tested on: UMUC3; experiment: Cytotoxicity against human UMUC3 cells assessed as reduction in cell viability measured after 72 hrs by SRB assay; assay type: functional, cell-based; details: UMUC3, 72 h
[20] = tested on: HCT-116; experiment: Cytotoxicity against human HCT-116 cells assessed as reduction in cell viability measured after 72 hrs by SRB assay; assay type: functional, cell-based; details: HCT-116, 72 h
[21] = tested on: PC-3; experiment: Antitumour activity against human PC-3 cells xenografted in Crl:Nu-Foxnl nu mouse assessed as inhibition of tumour growth at total effective dose of 8 mg/kg, iv measured on day 39; assay type: functional; details: PC-3, iv, 936 h, time 39 day, read-out: TGI
[22] = tested on: W256; experiment: Antitumour activity against Walker 256 adenocarcinoma cells implanted in Wistar rat assessed as increase in animal survival rate by measuring T/C ratio at 20 mg/kg, ip qd for 3 days administered on day 3,4,5 after tumor cell transplantation; assay type: functional; details: time 3 day
[23] = tested on: PANC-1; experiment: Antitumour activity against human PANC-1 cells xenografted in Crl:Nu-Foxnl nu mouse assessed as inhibition of tumour growth at total effective dose of 30 mg/kg, iv measured on day 45; assay type: functional; details: PANC-1, iv, 1080 h, time 45 day, read-out: TGI
[24] = tested on: PANC-1; experiment: Antitumour activity against human PANC-1 cells xenografted in Crl:Nu-Foxnl nu mouse assessed as inhibition of tumour growth at total effective dose of 10 mg/kg, iv measured on day 37; assay type: functional; details: PANC-1, iv, 888 h, time 37 day, read-out: TGI
[25] = tested on: NCI-H460; experiment: Antitumour activity against human NCI-H460 cells xenografted in Crl:Nu-Foxnl nu mouse assessed as inhibition of tumour growth at total effective dose of 60 mg/kg, iv measured on day 17; assay type: functional; details: 408 h, time 17 day, read-out: TGI
[26] = tested on: HCT-116; experiment: Antitumour activity against human HCT-116 cells xenografted in Crl:Nu-Foxnl nu mouse assessed as inhibition of tumour growth at total effective dose of 100 mg/kg, ip measured on day 23; assay type: functional; details: HCT-116, ip, 552 h, time 23 day, read-out: TGI
[27] = tested on: W256; experiment: Antitumour activity against Walker 256 adenocarcinoma cells implanted in Wistar rat assessed as increase in animal survival rate by measuring T/C ratio at 5 mg/kg, ip qd for 3 days administered on day 3,4,5 after tumor cell transplantation; assay type: functional; details: time 3 day

Structure (SMILES)	IC50 [4] [nM]	IC50 [9] [nM]	IC50 [10] [nM]	IC50 [11] [nM]	ΔTm [12] [°C]	IC50 [13] [nM]	ΔTm [14] [°C]	IC50 [15] [nM]	ΔTm [16] [°C]	ΔTm [17] [°C]	IC50 [19] [nM]	IC50 [20] [nM]	other results
Cc1ccc([N+](=O)[O-])c2c(NCCCN3CCN(CCCNc4ccc5ncn6c7ccc(O)cc7c(=O)c4c56)CC3)c3ccccc3nc12	74	130	67	38	21.3	237	4.4	42	18.8	16.4	35	51	IC50 [1]: 68 nM; IC50 [2]: 354 nM; inhibition in vivo at 120 mg/kg [3]: 4%; IC50 [5]: 17 nM; IC50 [6]: 244 nM; inhibition in vivo at 40 mg/kg [7]: 12%; inhibition in vivo at 160 mg/kg [8]: 61%; IC50 [18]: 343 nM
Cc1ccc([N+](=O)[O-])c2c(NCCCN3CCN(CCCNc4ccc([N+](=O)[O-])c5[nH]c6ccccc6c(=O)c45)CC3)c3ccccc3nc12	40	362	41	108	19.4	–	2.6	130	21.6	8.7	63	83	inhibition in vivo at 8 mg/kg [21]: 30%; T/C [22]: 550%; inhibition in vivo at 30 mg/kg [23]: 72%; inhibition in vivo at 10 mg/kg [24]: 27%; inhibition in vivo at 60 mg/kg [25]: 24%
Cc1ccc([N+](=O)[O-])c2c(NCCCN(C)CCCNc3ccc([N+](=O)[O-])c4[nH]c5ccccc5c(=O)c34)c3ccccc3nc12	55	–	44	–	18.8	230	2.4	110	28.5	6.8	54	74	inhibition in vivo at 100 mg/kg [26]: 52%; T/C [27]: 1000%
